Earlier results as cited in patent publication EP4778943A1, “LONG-ACTING PARATHYROID HORMONE RECEPTOR AGONIST FUSION PROTEIN AND USE THEREOF” (Shanghai Btd-Bio Technology Co., Ltd., priority 2023, dated 2025).
Where no end group is shown, it is not given here.

Key:
[1] = continuous administration once a day for 6 months; cited from earlier work
[2] = tested on: mice; conditions: continuous infusion 80 µg/kg BW/day for 2 weeks; cited from earlier work
[3] = tested on: TPTx (parathyroidectomy) rat model; conditions: daily 1.2 nmol/kg (low dose) and 2.4 nmol/kg (high dose), after 4 weeks, versus model group; cited from earlier work

What does the source list for `CC[C@H](C)[C@H](NC(=O)[C@H](CCC(=O)O)NC(=O)[C@H](CO)NC(=O)[C@@H](NC(=O)[C@@H](N)CO)C(C)C)C(=O)N[C@@H](CCC(N)=O)C(=O)N[C@@H](CC(C)C)C(=O)N[C@@H](CCSC)C(=O)N[C@@H](Cc1c[nH]cn1)C(=O)N[C@@H](CC(N)=O)C(=O)N[C@@H](CC(C)C)C(=O)NCC(=O)N[C@@H](CCCCN)C(=O)N[C@@H](Cc1c[nH]cn1)C(=O)N[C@@H](CC(C)C)C(=O)N[C@@H](CC(N)=O)C(=O)N[C@@H](CO)C(=O)N[C@@H](CCSC)C(=O)N[C@@H](CCC(=O)O)C(=O)N[C@@H](CCCNC(=N)N)C(=O)N[C@H](C(=O)N[C@@H](CCC(=O)O)C(=O)N[C@@H](Cc1c[nH]c2ccccc12)C(=O)N[C@@H](CC(C)C)C(=O)N[C@@H](CCCNC(=N)N)C(=O)N[C@@H](CCCCN)C(=O)N[C@@H](CCCCN)C(=O)N[C@@H](CC(C)C)C(=O)N[C@@H](CCC(N)=O)C(=O)N[C@@H](CC(=O)O)C(=O)N[C@H](C(=O)N[C@@H](Cc1c[nH]cn1)C(=O)N[C@@H](CC(N)=O)C(=O)N[C@@H](Cc1ccccc1)C(=O)O)C(C)C)C(C)C` [teriparatide]?
bone mineral density of L2-L4, increase [1]: about 5%; bone mineral density [2]: significant decrease

For “TransCon PTH: long-acting PTH, generic name palopegteriparatide, trade name Yorvipath (SVSEIQLMHNLGKHLNSMERVEWLRKKLQDVHNF; also: PEG carrier attached via prodrug linker, site not given here; UniProt P01270 32-65, looked up, fragment)”, which bone mineral density [3] is on record?
The bone mineral density was “significantly decreased”.

For Abaloparatide, which bone mineral density [2] is on record?
The bone mineral density was “significant decrease”.
